The results in this text go back to the supplement of paper PMC11061612.

For assay [1], the system named is LB771-HNC (Head and Neck Carcinoma). Nature of the assay: Bliss excess, mean over the matrix (fraction); higher = more synergy. The essentials: (§1)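 Cell lines in DMEM/F12 or RPMI with 10% FBS were plated in 1536-well plates, held 24 hours at 37°C, 5% CO2, then given two-drug dose matrices for 72 hours (DMSO typically 0.2%). Viability was read by CellTiter-Glo 2.0 luminescence and scaled as inhibition from 0 (vehicle wells) to 1 (blank wells). Combination Emax is the second-highest inhibition in the matrix; Bliss excess is observed combination effect minus expected EA + EB − EA·EB, EA and EB being single-agent effects.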

Assay [2] relates to OVCAR-8 (Ovarian Carcinoma). The assay is described as above. An outline of the steps: as §1
Assay [3] has as its system MHH-PREB-1 (B-Cell Non-Hodgkin's Lymphoma). Described as above. An outline of the steps: as §1
For assay [4], the system named is HCC-15 (Squamous Cell Lung Carcinoma). The description is as above. The essentials: as §1
Assay [5] relates to UMC-11 (Other Solid Carcinomas). The description is as above. An outline of the steps: as §1
Assay [6] deals with KARPAS-231 (B-Cell Non-Hodgkin's Lymphoma). The description is as above. The essentials: as §1
The test system of assay [7] is TE-4 (Esophageal Squamous Cell Carcinoma). The description is as above. The essentials: as §1
Assay [8] deals with CAL-51 (Breast Carcinoma). The description is as above. The essentials:
as §1

Assay [9] relates to KYSE-410 (Esophageal Squamous Cell Carcinoma). The description is as above. An outline of the steps: as §1
For assay [10], the system named is NCI-H747 (Colorectal Carcinoma). Described as above. An outline of the steps:
as §1

Assay [11] concerns CTB-1 (B-Cell Non-Hodgkin's Lymphoma). Described as above. An outline of the steps:
as §1

Assay [12] has as its system COLO-829 (Melanoma). The description is as above. The essentials: as §1
Assay [13] concerns SW626 (Colorectal Carcinoma). The description is as above. The essentials:
as §1

Assay [14] has as its system LB771-HNC (Head and Neck Carcinoma). Briefly: combination Emax (second highest fraction inhibited in the dose matrix, 72 h); higher = more inhibition; extreme values may be limits of the assay. The essentials:
as §1

The test system of assay [15] is OVCAR-8 (Ovarian Carcinoma). The description is as above. An outline of the steps: as §1
The subject of assay [16] is HCC-15 (Squamous Cell Lung Carcinoma). Described as above. An outline of the steps: as §1
Assay [17] relates to UMC-11 (Other Solid Carcinomas). The assay is described as above. An outline of the steps: as §1
For assay [18], the system named is KARPAS-231 (B-Cell Non-Hodgkin's Lymphoma). The assay is described as above. An outline of the steps: as §1
The test system of assay [19] is CAL-51 (Breast Carcinoma). The description is as above. An outline of the steps: as §1
The subject of assay [20] is KYSE-410 (Esophageal Squamous Cell Carcinoma). The description is as above. The essentials: as §1
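For Bliss excess, mean over the matrix in this document: after 72 h of two-drug dosing.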

As to `CN(CCO)CC[C@H](CSc1ccccc1)Nc1ccc(S(=O)(=O)NC(=O)c2ccc(N3CCC([C@@H](O)c4ccccc4-c4ccc(Cl)cc4)CC3)cc2)cc1S(=O)(=O)C(F)(F)F` [AZD4320] + C[C@@H](Nc1cc(F)cc(F)c1)c1cc(C(=O)N(C)C)cc2c(=O)cc(N3CCOCC3)oc12 [AZD8186] (first compound max 1 µM, 7x7, partner max 3 µM), the Bliss excess in assay [1] was 0.0095; in assay [2], 0.0245; in assay [3] it was 0.0355; in [4], 0.0764; in [5], -0.0356; in [6], 0.0269. The Bliss excess in [7] was 0.0296; in assay [8], 0.0283; in assay [9], 0.0209; in assay [10] it was -0.0282; in [11], 0.0266; in [12], 0.0015. The Bliss excess in assay [13] was -0.0203. In addition, the “combination Emax” value in assay [14] came to 0.264; in assay [15], 0.57; in [16], 0.96; in assay [17], 0.375; in [18], 1; in assay [19] it was 0.443. In addition, the “combination Emax” value in [20] is 0.299.
